The EC50 is the concentration that produces a half-maximal response.

Like-named read-outs stand apart in the source and are kept apart here. Bounds are passed on as bounds.

Among the data in patent US7041698B2, “Hepatitis C virus inhibitors” (Bristol-Myers Squibb Company, priority 2002, dated 2006) are IC50 and EC50 values, retold here.

Assay [1] addresses T1, HCV NS3/4A protease complex (UniProt P27958, C1454S/C1711G, species not given).
T1 construct: fused on or other part: Three-lysine solubilising tail at the C-terminus of NS4A
The experiment in a line: Recombinant HCV NS3/4A protease complex FRET peptide assay (strain not stated). The format is biochemical.

Assay [2] deals with HCV replicon in Huh7 cells. In words: HCV replicon cell-based assay. The conditions noted are these: Hepatitis C virus, Huh-7, 96 h, HCV replicon, 4 days, read-out: EC50 range. More on the design: species or system HCV strain 1B. An outline of the steps:
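Huh7 cells carrying a genotype 1b subgenomic replicon (NS3-NS5B, neo) treated 4 days at 37° C with compound (0.5% DMSO final). NS3 protease activity read in lysates with 10 μM FRET peptide (340/490 nm, kinetic), giving EC50. Confirmed by Taqman qRT-PCR of HCV RNA and a Renilla luciferase replicon.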
For orientation: Replicon systems follow genome replication, usually without infectious particles.

Setting [3] is: HCV NS3/4A protease enzyme assay, read-out: IC50 range.
[4] abbreviates: read-out: IC50 range, HCV NS3/4A protease enzyme assay.

On to `C=CC1C[C@]1(NC(=O)[C@@H]1C[C@@H](OC(=O)Nc2cc(C)ccc2Cl)CN1C(=O)[C@@H](NC(=O)OC(C)(C)C)C(C)(C)C)C(=O)NS(=O)(=O)C1CC1` (stereo partly drawn) [Compound 38, BocNH-P3(t-BuGly)-P2(Hyp(O—CO(NH—(2-chloro-5-methyl-phenyl))))-P1(1R,2S VinylAcca)—CONHSO2Cyclopropane], for which the IC50 in assay [1] (setting [3]) was less than 100 nM. Further, the EC50 in assay [2] was in the range of 100 to 1000 nM.

Consider `C=CC1C[C@]1(NC(=O)[C@@H]1C[C@@H](OC(=O)N(c2ccccc2)c2ccccc2)CN1C(=O)[C@@H](NC(=O)OC(C)(C)C)C(C)(C)C)C(=O)NS(=O)(=O)C1CC1` (stereo partly drawn) [Compound 39, BocNH-P3(t-BuGly)-P2(Hyp(O—CO(N,N-diphenyl)))-P1(1R,2S VinylAcca)—CONHSO2Cyclopropane], for which the IC50 in assay [1] (setting [4]) was less than 100 nM. For the same compound, in assay [2], the EC50 lay within 100 to 1000 nM.

Consider `C=CC1C[C@]1(NC(=O)[C@@H]1C[C@@H](OC(=O)Nc2cccc(C(=O)OC)c2)CN1C(=O)[C@@H](NC(=O)OC(C)(C)C)C(C)(C)C)C(=O)NS(=O)(=O)C1CC1` (stereo partly drawn) [Compound 40, BocNH-P3(t-BuGly)-P2(Hyp(O—CO(NH—(3-benzoic acid methyl ester))))-P1(1R,2S VinylAcca)—CONHSO2Cyclopropane], for which the IC50 in assay [1] (setting [3]) was less than 100 nM. In addition, in assay [2], the EC50 lay within 1000 to 10000 nM.

Regarding `C=CC1C[C@]1(NC(=O)[C@@H]1C[C@@H](OC(=O)Nc2ccc(OC)cc2[N+](=O)[O-])CN1C(=O)[C@@H](NC(=O)OC(C)(C)C)C(C)(C)C)C(=O)NS(=O)(=O)C1CC1` (stereo partly drawn) [Compound 41, BocNH-P3(t-BuGly)-P2(Hyp(O—CO(NH—(4-Methoxy-2-nitro-phenyl))))-P1(1R,2S VinylAcca)—CONHSO2Cyclopropane], the IC50 in assay [1] (setting [3]) was less than 100 nM. Moreover, in assay [2], the EC50 was in the range of 1000 to 10000 nM.

On to `C=CC1C[C@]1(NC(=O)[C@@H]1C[C@@H](OC(=O)Nc2cccc(C)c2C)CN1C(=O)[C@@H](NC(=O)OC(C)(C)C)C(C)(C)C)C(=O)NS(=O)(=O)C1CC1` (stereo partly drawn) [Compound 42, BocNH-P3(t-BuGly)-P2(Hyp(O—CO(NH—(2,3-Dimethyl-phenyl))))-P1(1R,2S VinylAcca)—CONHSO2Cyclopropane], for which, in assay [1] (setting [3]), the IC50 was less than 100 nM. For the same compound, the EC50 in assay [2] was 1000 to 10000 nM.

Regarding `C=CC1C[C@]1(NC(=O)[C@@H]1C[C@@H](OC(=O)N(C)C)CN1C(=O)[C@@H](NC(=O)OC(C)(C)C)C(C)(C)C)C(=O)NS(=O)(=O)C1CC1` (stereo partly drawn) [Compound 43, BocNH-P3(t-BuGly)-P2(Hyp(O—CO(N,N-dimethyl)))-P1(1R,2S VinylAcca)—CONHSO2Cyclopropane], in assay [1] (setting [4]), the IC50 was in the range of 100 to 1000 nM. Besides, in assay [2], the EC50 was greater than 10000 nM.

On to `C=CC1C[C@]1(NC(=O)[C@@H]1C[C@@H](OC(=O)N(CC)CC)CN1C(=O)[C@@H](NC(=O)OC(C)(C)C)C(C)(C)C)C(=O)NS(=O)(=O)C1CC1` (stereo partly drawn) [Compound 44, BocNH-P3(t-BuGly)-P2(Hyp(O—CO(N,N-diethyl)))-P1(1R,2S VinylAcca)—CONHSO2Cyclopropane], for which the IC50 in assay [1] (setting [4]) was less than 100 nM. Further, the EC50 in assay [2] is 1000 to 10000 nM.

For the compound `C=CC1C[C@]1(NC(=O)[C@@H]1C[C@@H](OC(=O)N(C(C)C)C(C)C)CN1C(=O)[C@@H](NC(=O)OC(C)(C)C)C(C)(C)C)C(=O)NS(=O)(=O)C1CC1` (stereo partly drawn) [Compound 45, BocNH-P3(t-BuGly)-P2(Hyp(O—CO(N,N-diisopropyl)))-P1(1R,2S VinylAcca)—CONHSO2Cyclopropane], the IC50 in assay [1] (setting [4]) was less than 100 nM. Besides, the EC50 in assay [2] was 100 to 1000 nM.

In the case of `C=CC1C[C@]1(NC(=O)[C@@H]1C[C@@H](OC(=O)N(CCCC)CCCC)CN1C(=O)[C@@H](NC(=O)OC(C)(C)C)C(C)(C)C)C(=O)NS(=O)(=O)C1CC1` (stereo partly drawn) [Compound 46, BocNH-P3(t-BuGly)-P2(Hyp(O—CO(N,N-dibutyl)))-P1(1R,2S VinylAcca)—CONHSO2Cyclopropane], in assay [1] (setting [3]), the IC50 is 100 to 1000 nM. Also, the half-maximal effective concentration (EC50) in assay [2] was in the range of 1000 to 10000 nM.

Consider `C=CC1C[C@]1(NC(=O)[C@@H]1C[C@@H](OC(=O)Nc2cccc(C(C)=O)c2)CN1C(=O)[C@@H](NC(=O)OC(C)(C)C)C(C)(C)C)C(=O)NS(=O)(=O)C1CC1` (stereo partly drawn) [Compound 47, BocNH-P3(t-BuGly)-P2(Hyp(O—CO(NH—(3-acetyl-phenyl))))-P1(1R,2S VinylAcca)—CONHSO2Cyclopropane], for which the IC50 in assay [1] (setting [3]) was in the range of 100 to 1000 nM. Also, the EC50 in assay [2] is greater than 10000 nM.

For `C=CC1C[C@]1(NC(=O)[C@@H]1C[C@@H](OC(=O)Nc2ccccc2C(=O)OC(C)C)CN1C(=O)[C@@H](NC(=O)OC(C)(C)C)C(C)(C)C)C(=O)NS(=O)(=O)C1CC1` (stereo partly drawn) [Compound 48, BocNH-P3(t-BuGly)-P2(Hyp(O—CO(NH—(2-benzoic acid isopropyl ester))))-P1(1R,2S VinylAcca)—CONHSO2Cyclopropane], in assay [1] (setting [3]), the IC50 is less than 100 nM. Moreover, the EC50 in assay [2] lay in the range of 100 to 1000 nM.

In the case of `C=CC1C[C@]1(NC(=O)[C@@H]1C[C@@H](OC(=O)Nc2sc3c(c2C(=O)OCC)CCCC3)CN1C(=O)[C@@H](NC(=O)OC(C)(C)C)C(C)(C)C)C(=O)NS(=O)(=O)C1CC1` (stereo partly drawn) [Compound 49, BocNH-P3(t-BuGly)-P2(Hyp(O—CO(NH-2-(4,5,6,7-tetrahydro-benzo[b]thiophene-3-carboxylic acid ethyl ester))))-P1(1R,2S VinylAcca)—CONHSO2Cyclopropane], the IC50 in assay [1] (setting [3]) was 100 to 1000 nM. For the same compound, in assay [2], the EC50 is 1000 to 10000 nM.

Turning to `C=CC1C[C@]1(NC(=O)[C@@H]1C[C@@H](OC(=O)Nc2cc(C)cc(C)c2)CN1C(=O)[C@@H](NC(=O)OC(C)(C)C)C(C)(C)C)C(=O)NS(=O)(=O)C1CC1` (stereo partly drawn) [Compound 50, BocNH-P3(t-BuGly)-P2(Hyp(O—CO(NH—(3,5-dimethyl-phenyl))))-P1(1R,2S VinylAcca)—CONHSO2Cyclopropane], in assay [1] (setting [3]), the IC50 is less than 100 nM. Also, the EC50 in assay [2] was in the range of 1000 to 10000 nM.

For `C=CC1C[C@]1(NC(=O)[C@@H]1C[C@@H](OC(=O)Nc2ccccc2F)CN1C(=O)[C@@H](NC(=O)OC(C)(C)C)C(C)(C)C)C(=O)NS(=O)(=O)C1CC1` (stereo partly drawn) [Compound 51, BocNH-P3(t-BuGly)-P2(Hyp(O—CO(NH—(2-fluoro-phenyl))))-P1(1R,2S VinylAcca)—CONHSO2Cyclopropane], the IC50 in assay [1] (setting [3]) fell in the range of 100 to 1000 nM. In addition, the EC50 in assay [2] was 1000 to 10000 nM.

As for `C=CC1C[C@]1(NC(=O)[C@@H]1C[C@@H](OC(=O)Nc2c(F)cccc2F)CN1C(=O)[C@@H](NC(=O)OC(C)(C)C)C(C)(C)C)C(=O)NS(=O)(=O)C1CC1` (stereo partly drawn) [Compound 52, BocNH-P3(t-BuGly)-P2(Hyp(O—CO(NH—(2,6-difluorophenyl))))-P1(1R,2S VinylAcca)—CONHSO2Cyclopropane], the IC50 in assay [1] (setting [3]) was 100 to 1000 nM. Besides, the EC50 in assay [2] was greater than 10000 nM.

Regarding `C=CC1C[C@]1(NC(=O)[C@@H]1C[C@@H](OC(=O)Nc2ccccc2Cl)CN1C(=O)[C@@H](NC(=O)OC(C)(C)C)C(C)(C)C)C(=O)NS(=O)(=O)C1CC1` (stereo partly drawn) [Compound 53, BocNH-P3(t-BuGly)-P2(Hyp(O—CO(NH—(2-chloro-phenyl))))-P1(1R,2S VinylAcca)—CONHSO2Cyclopropane], the IC50 in assay [1] (setting [3]) was less than 100 nM. Moreover, the EC50 in assay [2] fell in the range of 1000 to 10000 nM.

For the compound `C=CC1C[C@]1(NC(=O)[C@@H]1C[C@@H](OC(=O)Nc2c(Cl)cccc2Cl)CN1C(=O)[C@@H](NC(=O)OC(C)(C)C)C(C)(C)C)C(=O)NS(=O)(=O)C1CC1` (stereo partly drawn) [Compound 54, BocNH-P3(t-BuGly)-P2(Hyp(O—CO(NH—(2,6-dichloro-phenyl))))-P1(1R,2S VinylAcca)—CONHSO2Cyclopropane], the IC50 in assay [1] (setting [3]) lay in the range of 100 to 1000 nM. Further, in assay [2], the EC50 was 1000 to 10000 nM.

Consider `C=CC1C[C@]1(NC(=O)[C@@H]1C[C@@H](OC(=O)Nc2ccccc2OC)CN1C(=O)[C@@H](NC(=O)OC(C)(C)C)C(C)(C)C)C(=O)NS(=O)(=O)C1CC1` (stereo partly drawn) [Compound 55, BocNH-P3(t-BuGly)-P2(Hyp(O—CO(NH—(2-methoxy-phenyl))))-P1(1R,2S VinylAcca)—CONHSO2Cyclopropane], for which, in assay [1] (setting [3]), the IC50 is less than 100 nM. For the same compound, the concentration giving a half-maximal response (EC50) in assay [2] was in the range of 100 to 1000 nM.

Turning to `C=CC1C[C@]1(NC(=O)[C@@H]1C[C@@H](OC(=O)Nc2ccccc2OCC)CN1C(=O)[C@@H](NC(=O)OC(C)(C)C)C(C)(C)C)C(=O)NS(=O)(=O)C1CC1` (stereo partly drawn) [Compound 56, BocNH-P3(t-BuGly)-P2(Hyp(O—CO(NH—(2-ethoxy-phenyl))))-P1(1R,2S VinylAcca)—CONHSO2Cyclopropane], in assay [1] (setting [3]), the IC50 was less than 100 nM. Besides, the EC50 in assay [2] lay within 100 to 1000 nM.

Take `C=CC1C[C@]1(NC(=O)[C@@H]1C[C@@H](OC(=O)Nc2ccccc2C)CN1C(=O)[C@@H](NC(=O)OC(C)(C)C)C(C)(C)C)C(=O)NS(=O)(=O)C1CC1` (stereo partly shown) [Compound 57]: the IC50 in assay [1] (setting [3]) lay within 100 to 1000 nM. The EC50 in assay [2] lay within 1000 to 10000 nM.

Regarding `C=CC1C[C@]1(NC(=O)[C@@H]1C[C@@H](OC(=O)Nc2ccccc2CC)CN1C(=O)[C@@H](NC(=O)OC(C)(C)C)C(C)(C)C)C(=O)NS(=O)(=O)C1CC1` (stereo partly drawn) [Compound 59, BocNH-P3(t-BuGly)-P2(Hyp(O—CO(NH—(2-ethyl-phenyl))))-P1(1R,2S VinylAcca)—CONHSO2Cyclopropane], the IC50 in assay [1] (setting [3]) lay within 100 to 1000 nM. Moreover, the EC50 in assay [2] lay in the range of 1000 to 10000 nM.

For the compound `C=CC1C[C@]1(NC(=O)[C@@H]1C[C@@H](OC(=O)Nc2ccccc2[N+](=O)[O-])CN1C(=O)[C@@H](NC(=O)OC(C)(C)C)C(C)(C)C)C(=O)NS(=O)(=O)C1CC1` (stereo partly drawn) [Compound 60, BocNH-P3(t-BuGly)-P2(Hyp(O—CO(NH—(2-nitro-phenyl))))-P1(1R,2S VinylAcca)—CONHSO2Cyclopropane], the IC50 in assay [1] (setting [3]) is less than 100 nM. Also, in assay [2], the EC50 lay within 100 to 1000 nM.

As for `C=CC1C[C@]1(NC(=O)[C@@H]1C[C@@H](OC(=O)Nc2c(C)cccc2Cl)CN1C(=O)[C@@H](NC(=O)OC(C)(C)C)C(C)(C)C)C(=O)NS(=O)(=O)C1CC1` (stereo partly drawn) [Compound 63, BocNH-P3(t-BuGly)-P2(Hyp(O—CO(NH—(2-chloro-6-methyl))))-P1(1R,2S VinylAcca)—CONHSO2Cyclopropane], the IC50 in assay [1] (setting [3]) was in the range of 100 to 1000 nM. Also, the EC50 in assay [2] is 1000 to 10000 nM.
